Data published in patent US7402575B2, “Methods of treating inflammation” (priority 2003, dated 2008).

Tests used:
Type in all cases: cell-based, dog
[1] = test system: nitric-oxide guanosine 3′,5′cyclic monophosphate pathway; assay: Effect of NOS, guanylyl cyclase and PKG inhibitors on lysozyme's myocardial depressant effect in right ventricular trabecular preparation; conditions: for Effect on lysozyme's myocardial depressant effect: muscle incubated with inhibitor about one hour before lysozyme
Experimental: (§1) The right ventricular trabecular preparation used in this study has previously been described. Briefly, mongrel dogs (3 to 10 kg) were anesthetized with pentobarbital. The hearts were removed, flushed with 50 ml of Krebs-Henseleit solution (KH), and placed in ice-cold KH bubbled with a mixture of 95% O2 and 5% CO2. Three to four thin trabeculae (<1 mm diameter) were obtained from the right ventricle and were tied at each end with 6-O silk thread. Each thin muscle was suspended in a 5 ml vertical constant temperature bath that contained KH. The muscle was stimulated electrically via punctate platinum bipolar electrodes with rectangular pulses (1 ms duration) at an intensity of 50% above threshold delivered at intervals of 2,000 ms. The trabeculae were stretched to optimal length.
The plasma concentration of lysozyme attained in the inventors' sepsis model is approximately 10^−8M, and the 10^−7M to 10^−9M range was used in the experiments described below. Lysozyme was purified from the spleens of nonseptic dogs as previously described. Measurements were obtained at 5 minute intervals.
In one group of experiments, the non-specific nitric oxide synthase inhibitor N^G-monomethyl-L-arginine (L-LNMMA) was used to determine whether it could inhibit the depressant effect of lysozyme. The muscle was incubated with L-NMMA (10^−3M) for approximately one hour after which lysozyme was instilled into the preparation. As a negative control group, ventricular trabeculae were incubated with D-NMMA after which lysozyme was instilled. With the D-isomer, no inhibition of lysozyme's effect would be expected.
In separate experiments, the respective roles of eNOS, nNOS, and iNOS were evaluated in which the objective was to determine which of the NOS isoforms was responsible for the myocardial depression observed with lysozyme. The relatively specific inhibitors for eNOS (L-NIO.2HCl [L-N^5-(1-[Iminoethyl)-ornithine.2HCl], nNOS (N-ω-Propyl-L-arginine [N^5-[Imino(propylamino)methyl]-L-ornithine], and iNOS (1400W.dihydrochloride [N-(3-aminomethyl)benzyl)acetamidine.2HCl] were compared in respective experiments in which a range of concentrations of either NOS inhibitor was used.
In other experiments, the muscle was incubated ODQ (10^−3M) or the PKG inhibitor (Rp-8-Br-cGMP) for one hour. The effect of lysozyme on isometric tension was compared to trabeculae without the respective inhibitors.
The results are expressed as a percent of baseline isometric tension. Statistical analyses included two-way analysis of variance and Student Newman Keuls' multiple comparison test. The results are reported as mean (±SD).

[2] = test system: right ventricular trabecular preparation; assay: Effect of the substance itself on isometric tension in right ventricular trabecular preparation
Experimental: Aliquots of the 10-30 KD plasma fraction (0.05 to 1 ml) were then added to a right ventricular (RV) trabecular preparation to test for the presence of FCS activity. The RV preparation has previously been described (6,7). Briefly, mongrel dogs (3 to 10 kg) were anesthetized with pentobarbital, and their hearts were removed. Three to four thin trabeculae (<1 mm diameter) were obtained from the right ventricle and were suspended in a vertical constant temperature bath (5 ml) that contained Krebs Henseleit (KH) solution. The muscle was stimulated electrically at 0.5 Hz. Aliquots of plasma fractions (from 0.05 to 1 ml) were added to respective organ baths at 5 minute intervals. The changes observed in the pre and septic plasma fractions were expressed relative to tensions found at baseline (i.e. prior to the addition of the sample). An increase in the depressant activity in the septic plasma fraction relative to that found in the presepsis sample was indicative of an increase in FCS.
The effect of purified Lzm-S on myocardial depression was then studied in the ventricular trabecular preparation. In initial experiments, the objective was to compare Lzm-S prepared from septic and nonseptic spleens to see if there was any difference between the two preparations. Although no differences were apparent by SDS-PAGE gel, different isoforms of the enzyme could have developed in sepsis thereby increasing its potential to cause myocardial depression. Aliquots of the septic and nonseptic preparations were added (at 5 minute intervals) to respective organ baths, and the changes in isometric tension were then compared between Lzm-S obtained from spleens of septic and nonseptic animals.
The right ventricular (RV) preparation used in this study has also been described (49,6). Briefly, mongrel dogs (3 to 10 kg) were anesthetized with pentobarbital. The hearts were removed, flushed with 50 ml of Krebs-Henseleit solution (KH), and placed in ice-cold KH bubbled with a mixture of 95% O2 and 5% CO2. […]
After baseline tension was determined, either the lectin or placebo was placed into respective organ baths. […]

[3] = target: T1, lysozyme c (Lzm-S) (Canis lupus familiaris, UniProt P81709); assay: Inhibition of Lzm-S's myocardial depressant activity (isometric tension) in right ventricular trabecular preparation; conditions: for Isometric tension following pre-treatment with sugar: sugar 10^−3M added before Lzm-S; for Inhibition of Lzm-S's depressant effect on isometric tension: inhibitor 10^−3M added before Lzm-S, paced 0.5 Hz
T1 construct: Lzm-S was purified in a manner described by Grobler et al (14); from tissue
T1 sequence (P81709 1-130): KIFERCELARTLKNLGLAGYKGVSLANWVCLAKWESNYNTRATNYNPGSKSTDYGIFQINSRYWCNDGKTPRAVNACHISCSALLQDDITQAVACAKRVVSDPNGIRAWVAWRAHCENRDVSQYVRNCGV
Experimental: In subsequent experiments, the objective was to determine whether pretreatment of Lzm-S with the proteolytic enzyme proteinase-K reduced the extent to which myocardial depression developed in the in vitro preparation (7). Proteinase-K (attached to beaded agarose; Sigma Chemical, St Louis, Mo.) was added to the pure Lzm-S preparation. The effects of proteinase-K treated and nontreated Lzm-S on isometric tension were compared between the samples. Since proteinase-K is a non-specific proteolytic enzyme, a specific competitive inhibitor of lysozyme, TAC (chitotriose) was subsequently examined to determine whether it prevented the depression in isometric tension observed in the in vitro preparation (16,17).
In one set of experiments, it was determined whether TAC prevented the reduction in tension observed with Lzm-S. A dose of 10^−3M TAC (based on preliminary experiments) was added to the organ bath before the addition of Lzm-S. Lzm-S was then added to bring the final concentrations to 10^−10M, 10^−9M, 10^−8M, and 10^−7M in sequential steps. In a related set of experiments, the effect of TAC was studied under a similar protocol in which the ventricular trabecular preparation was paced at 1 Hz instead of 0.5 Hz. The objective was to determine whether the higher frequency altered the inhibitory response of TAC. In a third set of experiments, the sequence of adding TAC and Lzm-S was reversed. Lzm-S (10^−7M) was initially added to the preparation, after which TAC at bath concentrations of 10^−6M, 10^−5M, 10^−4M, 10^−3M were sequentially added. The objective was to determine whether TAC could attenuate the effect of Lzm-S on reducing the isometric response after an initial depression in isometric tension had already been attained.
as §1, with “(RV)” for “trabecular”, “also” for “previously”, “described (49,6).” for “described.”, “a” for “a 5 ml”, “bath (5 ml)” for “bath”, “KH (in mM: NaCl, 118; KCl, 4.7; CaCl2 2.5; MgSO4, 1.2; KH2PO4, 1.4; NaHCO3, 25; and dextrose, 11).” for “KH.”
Inhibitory activities of N-acetylglucosamine (NAG), N,N′ diacetylglucosamine (NAG-NAG: N,N′ diacetylchitobiose), and N,N′,N″,N′″ tetraacetylglucosamine (NAG-NAG-NAG-NAG: N,N′,N″,N′″-tetraacetylchitotetraose) were examined (Sigma Corp Canada, Oakville Ontario). These are structurally similar to TAC, but have a different number of NAG units (17). Two somewhat related sugars were also examined to see if there was potential for blocking the activity of lysozyme. These included D-cellotriose and N-aceytllactosamine. D-cellotriose includes three glucose residues linked by beta (1-4) glycosidic linkages, while N acetyllactosamine includes N-acetylglucosamine and galactose residues linked by beta (1-4) glycosidic linkages (12).
After baseline tension was determined, either the sugar or placebo was placed into respective organ baths. The concentration of the sugar used was 10^−3M based on the inventors' previous experiments with TAC 49), while the concentrations of lysozyme were 10^−9, 10^−8, and 10^−7M, respectively. Measurements were obtained at 5 minute intervals. The changes in isometric tension measured from baseline were compared between the treated and placebo baths. […]

| SMILES | Effect on lysozyme's myocardial depressant effect [1] | Isometric tension following pre-treatment with sugar ([3]; Lzm-S 10^−7M) | Isometric tension following pre-treatment with sugar ([3]; Lzm-S 10^−8M) | Isometric tension following pre-treatment with sugar ([3]; Lzm-S 10^−9M) | Inhibition of Lzm-S's depressant effect on isometric tension [3] | other results |
| --- | --- | --- | --- | --- | --- | --- |
| O=c1c2nc(Br)n(C3OC4COP([O-])(=S)OC4C3O)c2nc2[nH]c(-c3ccccc3)cn12.[Na+] (single isomer, unassigned) [Rp-8-Br-cGMP, guanosine 3′,5′-cyclic monophosphorothioate, β-phenyl-1, N^2-etheno-8-bromo-Pp-isomer, sodium salt] | blocked |  |  |  |  |  |
| CNC(=N)NCCCC(N)C(=O)O [D-NMMA] | no inhibition |  |  |  |  |  |
| CNC(=N)NCCC[C@H](N)C(=O)O [L-NMMA, N^G-monomethyl-L-arginine, reference compound] | markedly attenuated |  |  |  |  | Effect of the substance by itself on isometric tension [2]: no change in isometric tension |
| N=C(N)NCCC[C@H](N)C(=O)O [L-arginine] |  |  |  |  |  | Effect on the inhibition by L-NMMA [1]: able to competively overcome the effect of L-NMMA |
| CC(=O)N[C@H]1C(O)O[C@H](CO)[C@@H](O)[C@@H]1O (stereo partly shown) [N-acetylglucosamine] |  | 44±2 % of baseline | 61±4.5 % of baseline | 85±2 % of baseline | neither N-acetylglucosamine (NAG), N-acetyllactosamine nor cellotriose had inhibitory properties |  |
| CC(=O)N[C@H]1C(O)O[C@H](CO)[C@@H](O[C@@H]2O[C@H](CO)[C@H](O)[C@H](O)[C@H]2O)[C@@H]1O (stereo partly shown) [N-acetyllactosamine] |  | 48±1 % of baseline | 55±1 % of baseline | 60±0 % of baseline | neither N-acetylglucosamine (NAG), N-acetyllactosamine nor cellotriose had inhibitory properties |  |
| O=c1onc2cnc3ccccc3n12 [ODQ, 1H-[1,2,4] oxidadiazolo-[4,3-a] quinoxalin-1-one] | blocked |  |  |  |  |  |
| OCC1OC(OC2C(CO)OC(OC3C(CO)OC(O)C(O)C3O)C(O)C2O)C(O)C(O)C1O [cellotriose, D-cellotriose] |  | 58±17 % of baseline | 79±13 % of baseline | 84±9 % of baseline | neither N-acetylglucosamine (NAG), N-acetyllactosamine nor cellotriose had inhibitory properties |  |
| CC(=N)NCCC[C@H](N)C(=O)O.Cl.Cl [eNOS] | most potent in the prevention of lysozyme's myocardial depressant effect |  |  |  |  | Concentration of the NOS inhibitor at which lysozyme's depressant effect was prevented [1]: 10^−8 M |
| CC(=O)N[C@H]1[C@H](O[C@H]2[C@H](O)[C@@H](NC(C)=O)C(O)O[C@@H]2CO)O[C@H](CO)[C@@H](O[C@@H]2O[C@H](CO)[C@@H](O[C@@H]3O[C@H](CO)[C@@H](O)[C@H](O)[C@H]3NC(C)=O)[C@H](O)[C@H]2NC(C)=O)[C@@H]1O (stereo partly shown) [tetraacetylchitotetraose, N,N′,N″,N′″ tetraacetylglucosamine] |  |  |  |  | no inhibitory effect | Inhibition of Lzm-S's depressant effect on isometric tension ([3]; listed as N,N′,N″,N′″ tetraacetylchitotetraose): no inhibitory effect on lysozyme's depressant activity |
